Source: the supplement of paper PMC5580409

test system: Plasmodium falciparum 3D7; test: pEC50, asexual blood-stage growth inhibition; conditions: 72 h
Protocol: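 Held-out test set measured in the Guy lab in 2014 with the same procedure as the primary St. Jude screen. P. falciparum 3D7 blood-stage culture (2% hematocrit, 1% parasitemia) was treated with compound for 72 h at 37 °C, and growth was read by SYBR Green I fluorescence. EC50 came from a four-parameter Hill fit over a 10-point dilution series […].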

Row | SMILES | pEC50
1 | O=C(Cc1ccc(Br)cc1)Nc1cccc(-c2nc3ccccc3[nH]2)c1 | < 4.82
2 | N=c1n(CCN2CCCCC2)c2ccccc2n1CC(O)c1cccc(Br)c1 (stereo not drawn) | 5.73
3 | COc1ccccc1-c1c(C(F)(F)F)oc2c(CN3CCCC3)c(O)ccc2c1=O | < 4.82
4 | COCCOC(=O)C1=C(C)NC2=C(C(=O)CC(c3ccc(OC)cc3)C2)C1c1ccc(Cl)cc1 (stereo not drawn) | 6.17
5 | CCOc1ccc(NCC(O)Cn2c3ccc(Cl)cc3c3cc(Cl)ccc32)cc1 (stereo not drawn) | 5.13
6 | CC(C)(CO)NCC(O)Cn1c2ccc(Cl)cc2c2cc(Cl)ccc21 (stereo not drawn) | 5.29
7 | CCOc1cc(C2CC(=O)NC3=C2C(=O)CC(c2ccc(OC)c(OC)c2)C3)cc(Cl)c1O (stereo not drawn) | 6.68
8 | C=CCn1nnnc1NCc1cc(Cl)c(OC)c(OC)c1 | < 4.82
9 | COC(=O)[C@@H](NC(=O)c1cn(C2CCCCC2)cc(C(=O)NC(C)(C)C)c1=O)c1ccccc1 | < 4.82
10 | COc1ccc(C2CC(=O)NC3=C2C(=O)CC(c2ccc(OC)c(OC)c2)C3)c(OC)c1 (stereo not drawn) | < 4.82
11 | O=C(NC1CCCCC1)c1cn(C2CC2)cc(C(=O)NC2CCN(Cc3ccccc3)CC2)c1=O | < 4.82
12 | OC(CNCc1ccccc1)Cn1c2ccc(Cl)cc2c2cc(Cl)ccc21 (stereo not drawn) | 5.73
13 | CCN(CC)c1nc(Nc2ccc(O)cc2)nc(Nc2cc(C)ccc2C)n1 | < 4.82
14 | CCN(CC)CC(O)COc1ccc(CNC2CCCCC2)cc1OC (stereo not drawn) | < 4.82
15 | Cn1nccc1C(=O)Nc1cc(Oc2ccc(Cl)cc2)cc([N+](=O)[O-])c1 | < 4.82
16 | CCOc1cc(C2C(C(=O)OC(C)CC)=C(C)NC3=C2C(=O)CC(c2ccc(Cl)cc2)C3)ccc1O (stereo not drawn) | < 4.82
17 | COc1ccc(OC)c(C2CC(=O)C3=C(C2)NC(=O)CC3c2cccc(Cl)c2Cl)c1 (stereo not drawn) | 5.61
18 | Cc1ccc(C)c(NCC(O)Cn2c3ccccc3c3ccccc32)c1 (stereo not drawn) | < 4.82
19 | Cc1cccc(CN2CCCn3c4c(c5cc(C)ccc53)CCCC42)c1 (stereo not drawn) | 5.33
20 | COc1ccc(CN2CCCn3c4c(c5cc(C)ccc53)CCCC42)cc1O (stereo not drawn) | < 4.82
21 | COC(=O)C1=C(C)NC2=C(C(=O)CC(c3ccc(Cl)cc3)C2)C1c1cccc(O)c1 (stereo not drawn) | < 4.82
22 | CCCCn1nnnc1NCc1ccc(OC)c(OC)c1OC | 6.32
23 | CN(C)CCCn1c(=N)n(CC(O)c2ccc(Br)cc2)c2ccccc21 (stereo not drawn) | 5.54
24 | O=C(Nc1ccncc1)C1CC1c1ccccc1 (stereo not drawn) | < 4.82
25 | Cc1cccc(NCC(O)Cn2c3ccc(Br)cc3c3cc(Br)ccc32)c1C (stereo not drawn) | 5.21
26 | O=C(CNCc1ccccc1)c1ccc(Br)cc1 | < 4.82
27 | Cc1ccc(NCC(O)Cn2c3ccc(Cl)cc3c3cc(Cl)ccc32)cc1 (stereo not drawn) | 5.28

Row | SMILES | pEC50
28 | COc1cccc(CNCC(O)c2ccccc2)c1 (stereo not drawn) | < 4.82
29 | CC(C)c1ccc(/C=C/C(=O)Nc2ccc(C(C)C)cc2)cc1 | < 4.82
30 | CCCCn1c(=N)n(CC(O)COc2ccc(Cl)cc2)c2ccccc21 (stereo not drawn) | < 4.82
31 | COc1ccccc1-c1c(C(F)(F)F)oc2c(CN3CCC(C)CC3)c(O)ccc2c1=O | < 4.82
32 | CCOc1ccc(NC(=O)/C=C/c2ccccc2Cl)cc1 | 6.34
33 | CC1=C(C(=O)OCCOc2ccccc2)C(c2ccc(F)cc2)C2=C(CC(c3ccccc3)CC2=O)N1 (stereo not drawn) | < 4.82
34 | Cc1c(Cl)ccc2c(C(=O)NCCN3CCOCC3)cc(-c3ccncc3)nc12 | < 4.82
35 | CCN(CC)CC(O)Cn1c2ccccc2c2ccccc21 (stereo not drawn) | 5.34
36 | CCC(C(=O)Nc1cccc(-c2nc3ccccc3[nH]2)c1)c1ccccc1 (stereo not drawn) | < 4.82
37 | COc1ccccc1-c1c(C(F)(F)F)oc2c(CN3CCOCC3)c(O)ccc2c1=O | < 4.82
38 | O=c1c2ccccc2nc(SCc2cn3ccccc3n2)n1Cc1ccco1 | < 4.82
39 | CCOc1ccc(-c2nc3cc(C)ccc3[nH]2)cc1 | 5.12
40 | CCCCn1c(=N)n(CC(O)c2ccc(OC)cc2)c2ccccc21 (stereo not drawn) | < 4.82
41 | CN(C)c1ccc(NC(=O)/C=C/c2ccccc2Cl)cc1 | 4.99
42 | CCCCn1c(=N)n(CC(=O)c2ccc(Cl)cc2)c2ccccc21 | < 4.82
43 | O=C(Nc1cc(Cl)ccc1O)c1cnn2c1NC(c1ccc(Br)cc1)CC2C(F)(F)F (stereo not drawn) | < 4.82
44 | OC(CNc1ccc(Cl)cc1)Cn1c2ccc(Cl)cc2c2cc(Cl)ccc21 (stereo not drawn) | < 4.82
45 | COc1ccc(CCNCC(O)Cn2c3ccccc3c3ccccc32)cc1OC (stereo not drawn) | 5.26
46 | Cc1ccc(C(=O)Cn2c(=N)n(CCN3CCCCC3)c3ccccc32)cc1 | < 4.82
47 | COc1cc(CNn2nnnc2N)cc(Cl)c1OC | < 4.82
48 | Cc1ccc2c(c1)c1c3n2CCCN=C3CCC1 | < 4.82
49 | OC(CNC1CCCC1)COc1ccccc1-c1ccccc1 (stereo not drawn) | < 4.82
50 | CC(C)N1CCN(Cc2cc(Br)ccc2O)CC1 | < 4.82
51 | O=C(NC1CCN(Cc2ccccc2)CC1)c1cc(-c2ccncc2)nc2ccc(Cl)cc12 | 5.54
52 | CCn1c(CSCc2ccc(F)cc2)nnc1SCC(=O)Nc1cc(C(F)(F)F)ccc1Cl | < 4.82
53 | N=c1n(CCN2CCCCC2)c2ccccc2n1CC(O)COc1ccc(Cl)cc1Cl (stereo not drawn) | 5.53
